Measured values: patent US12285431B2, “Treatment of Rb-negative tumors using topoisomerase inhibitors in combination with cyclin dependent kinase 4/6 inhibitors” (G1 Therapeutics, Inc., priority 2014, dated 2025)
Entries after “also recorded” stand apart in the source; their conditions may differ.

Experiments:
[1] = test system: HS68 cells; test: G1 arrest (cellular G1 and S-phase) assay, propidium iodide flow cytometry; format: cell-based, human
Method: HS68 cells (human skin fibroblast cell line (Rb-positive)) were stained with propidium iodide staining solution and run on Dako Cyan Flow Cytometer. The fraction of cells in G0-G1 DNA cell cycle versus the fraction in S-phase DNA cell cycle was determined using FlowJo 7.2.2 analysis.
The compounds listed in Table 1 were tested for their ability to arrest HS68 cells at the G1 phase of the cell cycle.

[2] = test system: MCF7 (breast adenocarcinoma, Rb-positive); test: Cellular proliferation assay (CellTiter-Glo), MCF7; format: cell-based; details: Homo sapiens, MCF7, 144 h, cell viability after six days
Method: (§1) Further cellular proliferation assays were conducted using the following cancer cell lines: MCF7 (breast adenocarcinoma—Rb-positive), ZR-75-1 (breast ductal carcinoma—Rb-positive), H69 (human small cell lung cancer—Rb-negative) cells, or A2058 (human metastatic melanoma cells—Rb-negative). These cells were seeded in Costar (Tewksbury, Massachusetts) 3093 96 well tissue culture treated white walled/clear bottom plates. Cells were treated with the compounds of Table 1 as nine point dose response dilution series from 10 uM to 1 nM. Cells were exposed to compounds and then cell viability was determined after either four (H69) or six (MCF7, ZR75-1, A2058) days as indicated using the CellTiter-Glo® luminescent cell viability assay (CTG; Promega, Madison, Wisconsin, United States of America) following the manufacturer's recommendations. Plates were read on BioTek (Winooski, Vermont) Syngergy2 multi-mode plate reader. The Relative Light Units (RLU) were plotted as a result of variable molar concentration and data was analyzed using Graphpad (LaJolla, California) Prism 5 statistical software to determine the EC50 for each compound.

[3] = test system: ZR-75-1 (breast ductal carcinoma, Rb-positive); test: Cellular proliferation assay (CellTiter-Glo), ZR-75-1; format: cell-based; details: Homo sapiens, ZR-75-1, 144 h, cell viability after six days, read-out: ZR75-1 Cellular EC50
Method: as §1

[4] = test system: H69 (human small cell lung cancer, Rb-negative) cells; test: Cellular proliferation assay (CellTiter-Glo), H69; format: cell-based; details: NCI-H69, 96 h, cell viability after four days
Method: as §1

[5] = test system: A2058 (human metastatic melanoma cells, Rb-negative); test: Cellular proliferation assay (CellTiter-Glo), A2058; format: cell-based; details: A2058, 144 h, cell viability after six days
Method: as §1

[6] = Mouse pharmacokinetics (oral gavage / intravenous); format: in vivo, mice; details: for AUC 0-inf (uM * h) i.v.: 10 mg/kg intravenous injection; for AUC (uM * h) p.o. / Cmax / Tmax (h) p.o. / t1/2 (h) p.o.: 30 mg/kg oral gavage; for t1/2 (h) p.o.: 30 mg/kg
[7] = biological target: CDK6/CycD3 (Homo sapiens, UniProt Q00534); test: CDK6/CycD3 kinase assay; details: read-out: CDK6/CycD3 IC50; Table 3
CDK6/CycD3, sequence (Q00534 whole entry, species assumed): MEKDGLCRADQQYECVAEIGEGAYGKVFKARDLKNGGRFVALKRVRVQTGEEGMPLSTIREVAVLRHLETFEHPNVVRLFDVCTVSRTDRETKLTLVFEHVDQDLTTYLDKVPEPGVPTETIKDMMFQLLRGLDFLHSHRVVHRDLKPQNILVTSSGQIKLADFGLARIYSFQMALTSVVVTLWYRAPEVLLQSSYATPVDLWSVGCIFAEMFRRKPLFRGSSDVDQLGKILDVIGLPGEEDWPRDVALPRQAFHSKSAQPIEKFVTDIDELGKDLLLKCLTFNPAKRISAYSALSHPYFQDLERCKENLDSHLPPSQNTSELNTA
CDK6/CycD3, sequence (P30281 whole entry partner, species assumed): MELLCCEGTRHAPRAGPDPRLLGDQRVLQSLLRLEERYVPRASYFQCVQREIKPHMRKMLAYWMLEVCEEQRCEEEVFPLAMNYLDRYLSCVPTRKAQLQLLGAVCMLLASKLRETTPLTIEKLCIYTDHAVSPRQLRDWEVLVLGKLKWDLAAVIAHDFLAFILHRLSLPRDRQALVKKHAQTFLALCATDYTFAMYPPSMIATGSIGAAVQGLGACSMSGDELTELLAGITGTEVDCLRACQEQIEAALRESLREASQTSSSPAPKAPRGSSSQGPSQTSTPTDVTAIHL

[8] = test system: 456 (395 non-mutant) kinases; test: DiscoveRx KINOMEscan profiling; format: binding; details: single concentration 1000 nM
[9] = test system: tHS68 cells (Rb-positive); test: Cell cycle arrest screen, tHS68; format: cell-based
Text: (§2) To test the ability of the disclosed CDK4/6 inhibitors to induce a clean G1-arrest, a cell based screening method was used consisting of two Rb-positive (tHS68 and WM2664) and one Rb-negative (A2058) cell line. […] At the conclusion of the experiment, cells were harvested, fixed, and stained with propidium iodide (a DNA intercalator), which fluoresces strongly red (emission maximum 637 nm) when excited by 488 nm light. Samples were run on Dako Cyan flow cytometer and >10,000 events were collected for each sample. Data were analyzed using FlowJo 2.2 software developed by TreeStar, Inc.

[10] = test system: WM2664 cells (Rb-positive); test: Cell cycle arrest screen, WM2664; format: cell-based; details: 24 hours
Text: as §2

[11] = test system: A2058 cells (Rb-negative); test: Cell cycle arrest screen, A2058; format: cell-based; details: 24 hours
Text: as §2

[12] = test system: Rb phosphorylation (Ser780, Ser807/811) in tHS68 cells; test: Rb phosphorylation western blot, tHS68; format: cell-based; details: tHS68, 300 nM, 4, 8, 16 and 24 hours
Method: (§3) The CDK4/6-cyclin D complex is essential for progression from G1 to the S-phase of the DNA cell cycle. This complex phosphorylates the retinoblastoma tumor suppressor protein (Rb). […] Samples were lysed and protein was assayed by western blot analysis. Rb phosphorylation was measured at two sites targeted by the CDK4/6-cyclin D complex, Ser780 and Ser807/811 using species specific antibodies.

[13] = test system: Rb phosphorylation (Ser780, Ser807/811) in WM2664 cells; test: Rb phosphorylation western blot, WM2664; format: cell-based; details: WM2664, 300 nM, 4, 8, 16 and 24 hours
Method: as §3

[14] = test system: Rb phosphorylation (Ser780, Ser807/811) in A2058 cells; test: Rb phosphorylation western blot, A2058; format: cell-based; details: A2058, 300 nM, 4, 8, 16 and 24 hours
Method: as §3

[15] = test system: NCI-H69 SCLC xenograft (Rb-negative); test: NCI-H69 SCLC xenograft model, Example 156; format: in vivo, mice; details: Compound T 100 mg/kg po qd×5×4; carboplatin 40 mg/kg and etoposide 4 mg/kg ip twice per week for 3 weeks; topotecan 0.6 mg/kg ip once daily for 5 days; FIG. 11
[16] = test system: NCI-H69 SCLC xenograft (Rb-negative); format: in vivo
Text: An Rb-negative model of small cell lung cancer was used in the following example. Briefly, xenografts of National Cancer Institute (NCI) […] cells were grafted onto the mice (Athymic Nude (Crl:NU(NCr)-Foxn1^nu); 6-12 week old females) using the South Texas Accelerated Research Therapeutics (START) Cell-Based Xenograft (START-CBX) tumor model. H69 cells are human small cell lung cancer cells and are Rb-negative.
Data collected from the efficacy study included animal weights, observations and tumor dimensions. This information was used to determine agent tolerability based on weight change and gross physiologic changes and anticancer activity based on tumor growth delay or regression. The designated endpoint for this study was an individual tumor volume of 1 cm^3 or 60 days following treatment initiation.
Tumor fragments from NCI-H69 were harvested from host animals and implanted into immune-deficient mice and the study initiated at a mean tumor volume of approximately 150-250 mm^3.
Additional details of the study are outlined in Table 6 below. […] Tumor size was examined twice per week and the endpoint for this study was Day 59.

[17] = biological target: CDK4/CyclinD1 (Homo sapiens, UniProt P11802); test: CDK4/cyclinD1 kinase assay (Nanosyn, Caliper microfluidic kinase detection); format: biochemical; details: read-out: CDK4/CycD1 IC50
CDK4/CyclinD1, sequence (P11802 whole entry, species assumed): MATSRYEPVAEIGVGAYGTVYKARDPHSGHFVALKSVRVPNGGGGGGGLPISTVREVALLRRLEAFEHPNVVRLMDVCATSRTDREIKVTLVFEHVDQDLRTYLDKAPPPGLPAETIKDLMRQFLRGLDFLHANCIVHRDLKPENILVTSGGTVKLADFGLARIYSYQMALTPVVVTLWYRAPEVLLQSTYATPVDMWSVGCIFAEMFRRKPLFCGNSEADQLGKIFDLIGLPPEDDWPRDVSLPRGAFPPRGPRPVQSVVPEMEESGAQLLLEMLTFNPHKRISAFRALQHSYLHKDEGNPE
CDK4/CyclinD1, sequence (P24385 whole entry partner, species assumed): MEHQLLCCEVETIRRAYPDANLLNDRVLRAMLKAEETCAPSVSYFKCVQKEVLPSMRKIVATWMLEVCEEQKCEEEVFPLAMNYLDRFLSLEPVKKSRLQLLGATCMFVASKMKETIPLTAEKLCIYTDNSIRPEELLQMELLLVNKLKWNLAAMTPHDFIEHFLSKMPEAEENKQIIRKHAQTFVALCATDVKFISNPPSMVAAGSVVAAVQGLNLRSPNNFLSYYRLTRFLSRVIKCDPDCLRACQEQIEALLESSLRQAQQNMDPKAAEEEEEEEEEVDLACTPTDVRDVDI
Method: The assays were performed using microfluidic kinase detection technology (Caliper Assay Platform). The compounds were tested in 12-point dose-response format in singlicate at Km for ATP. Phosphoacceptor substrate peptide concentration used was 1 μM for all assays and Staurosporine was used as the reference compound for all assays. Specifics of each assay are as described below:
CDK4/CyclinD1: Enzyme concentration: 1 nM; ATP concentration: 200 μM; Incubation time: 10 hr.

[18] = biological target: CDK2/CyclinE (Homo sapiens, UniProt P24941); test: CDK2/cyclinE kinase assay (Nanosyn, Caliper); format: biochemical; details: Table 2
[19] = Group 2: Compound T 100 mg/kg PO qdx5x4 and topotecan vehicle

In the case of `CC(C)N1CCN(c2ccc(Nc3ncc4cc5n(c4n3)C3(CCCCC3)CNC5=O)nc2)CC1` [Compound GG], the EC50 ([1]; Homo sapiens, Hs68, HS68 cells) is reported as 80 nM, the EC50 [2] is reported as 52 nM and the EC50 [3] is reported as 62 nM. The EC50 [4] was 2920 nM, the EC50 [5] was 2690 nM and the “AUC 0-inf (uM * h) i.v.” value [6] was 1.1 µM·h. The “AUC (uM * h) p.o.” value [6] was 1.9 µM·h, the Cmax [6] was 1.9 µM and the “Tmax (h) p.o.” value [6] was 1 h. The “t1/2 (h) p.o.” value [6] was 3.5 h and the IC50 [7] was 4.7 nM.

In the case of `CN1CCN(c2ccc(Nc3ncc4cc5n(c4n3)C3(CCCCC3)CNC5=O)nc2)CC1` [Compound T], the “number of 395 non-mutant kinases inhibited, inhibitory threshold 65%” value [8] is reported as 92, the “number of 395 non-mutant kinases inhibited, inhibitory threshold 90%” value [8] is reported as 31 and the “number of 395 non-mutant kinases inhibited, inhibitory threshold 99%” value [8] is reported as 6. The “share of 395 non-mutant kinases inhibited, inhibitory threshold 65%” value [8] was 23.3%, the “share of 395 non-mutant kinases inhibited, inhibitory threshold 90%” value [8] was 7.8% and the “share of 395 non-mutant kinases inhibited, inhibitory threshold 99%” value [8] was 1.5%. It also gave an EC50 ([1]; Homo sapiens, Hs68, HS68 cells) of 100 nM, an EC50 [2] of 49 nM and an EC50 [3] of 36 nM. The EC50 [4] was greater than 3000 nM, the EC50 [5] was greater than 3000 nM and the “AUC 0-inf (uM * h) i.v.” value [6] was 1.3 µM·h. For the same compound, the “AUC (uM * h) p.o.” value [6] was 2.9 µM·h, the Cmax [6] was 2.5 µM and the “Tmax (h) p.o.” value [6] was 1 h. The “t1/2 (h) p.o.” value [6] was 5 h, the “cell cycle distribution at 300 nM (in words)” value ([9]; 300 nM, 24 hours) was “loss of the S-phase peak” and the EC50 ([9]; 24 hours treatment, read-out: G1 cell cycle arrest EC50) was 80 nM. For the same compound, the “S-phase fraction at the highest concentration shown” value ([9]; 24 hours, 28% at baseline) was 6%, the “cell cycle distribution, increasing concentrations (in words)” value ([9]; 24 hours, FIG. 9A) was “robust G1 cell cycle arrest; also recorded: clean G1 arrest accompanied by a corresponding decrease in the number of cells in S-phase” and the “cell cycle distribution at 300 nM (in words)” value [10] was “loss of the S-phase peak”. For the same compound, the “cell cycle distribution at 300 nM (in words)” value [11] was “does not cause a loss of the S-phase peak”, the “Rb phosphorylation at Ser780 and Ser807/811 (in words)” value (“Rb phosphorylation” below) [12] was “blocks Rb phosphorylation in Rb-positive cell lines by 16 hours post exposure; also recorded: reduced Rb-phosphorylation starting 16 hours after treatment” and the “Rb phosphorylation” value [13] was “blocks Rb phosphorylation in Rb-positive cell lines by 16 hours post exposure; also recorded: reduced Rb-phosphorylation starting 16 hours after treatment”. For the same compound, the “Rb phosphorylation” value [14] was “but not in the Rb-negative cell line (A2058)”, the “effect on tumor growth / tumor size (in words)” value [15] was “very little effect of slowing tumor growth” and the “activity toward NCI-H69 xenografts / tumor volume (in words)” value ([16]; Compound T alone 100 mg/kg, topotecan 0.6 mg/kg, combination with each Compound T dose (100, 50 or 10 mg/kg), FIG. 16) was “inactive”. For the same compound, the “tolerability: weight loss or toxicity (in words)” value ([16]; Compound T alone or thirty minutes before topotecan, FIG. 13) was “well tolerated with no additive weight loss or toxicity”, the “CR (tumor volume < 15 mm^3)” value [16, 19] was 0 and the “LTS (individual tumor volume < volume endpoint at study time endpoint)” value [16, 19] was 0. For the same compound, the “MTTE ± SD (timepoint in days to reach designated tumor volume or time endpoint)” value [16, 19] was 14 ± 4 days, the “PR (%) (tumor volume ≥ 50% regression versus Day 0)” value [16, 19] was 0% and the “T-C (difference in days between MTTE of treatment and control groups)” value [16, 19] was less than 0 days. For the same compound, the “TFS (complete responder at study endpoint)” value [16, 19] was 0.

In the case of `CCN(CC)C1CCN(c2ccc(Nc3ncc4cc5n(c4n3)C3(CCCCC3)CNC5=O)nc2)C1` (stereo not shown) [UU], the IC50 [17] is reported as 7.3 nM, the “Fold Selectivity (CDK2/CycE/CDK4)” value [18] is reported as 542 and the IC50 ([18]; ATP 100 μM, 1 hr, read-out: CDK2/CycE IC50) is reported as 3960 nM. The EC50 ([1]; HS68 cells) was 300 nM.
